From patent publication US20240116877A1, “KIT KINASE INHIBITORS AND METHODS OF USE THEREOF” (Deciphera Pharmaceuticals, LLC, priority 2021, published 2024)
Read-outs that look alike come from different tables or passages of the source.

Tests used:
[1] = biological target: c-KIT kinase (uKIT) (Homo sapiens (Human), UniProt P10721); experiment: Biochemical Assay for uKIT (coupled pyruvate kinase/lactate dehydrogenase assay); settings: Inhibition of biochemical activity of uKIT kinase; 1 mM ATP
Description: Biochemical Assay for uKIT
Activity of c-KIT kinase (SEQ. ID NO. 1 or SEQ. ID NO. 2) was determined spectroscopically using a coupled pyruvate kinase/lactate dehydrogenase assay that continuously monitors the ATP hydrolysis-dependent oxidation of NADH (e.g., Schindler et al. Science (2000) 289: 1938-1942). Assays were conducted in 384-well plates (100 μL final volume) using 16 nM (Decode, SEQ ID No. 1) or 4.36 nM (Signal Chem, SEQ. ID No. 2), 0.7 mg/mL PE4Y substrate, 1.5 units pyruvate kinase, 2.1 units lactate dehydrogenase, 1 mM phosphoenol pyruvate, 0.28 mM NADH and 1 mM ATP in assay buffer (100 mM Tris, pH 7.5, 15 mM MgCl2, 0.5 mM DTT, 0.1% octyl-glucoside, 0.002% (w/v) BSA, and 0.002% Triton X-100). Inhibition of KIT was measured by adding serial diluted test compound (final assay concentration of 1% DMSO). A decrease in absorption at 340 nm was monitored continuously for 6 h at 30° C. on a multi-mode microplate reader (BioTek). The reaction rate was calculated using the 2-3 h time frame. The reaction rate at each concentration of compound was converted to percent inhibition using controls (i.e., reaction with no test compound and reaction with a known inhibitor) and IC50 values were calculated using software routines in Prism (GraphPad software).

[2] = system: GIST 430 cells; experiment: GIST 430 Cell Proliferation Assay (resazurin); type: cell-based; settings: Homo sapiens; GIST430 cell proliferation
Description: GIST 430 Cell Proliferation Assay
(§1) A serial dilution of test compound was dispensed into a 96-well black clear bottom plate (Corning, Corning, NY). Five thousand cells were added per well in 200 μL complete growth medium. Plates were incubated for 115 h at 37 degrees Celsius, 5% CO2, 95% humidity. At the end of the incubation period 40 μL of a 440 μM solution of resazurin (Sigma, St. Louis, MO) in PBS was added to each well and incubated for an additional 5 h at 37 degrees Celsius, 5% CO2, 95% humidity. Plates were read on a Synergy2 reader (Biotek, Winooski, VT) using an excitation of 540 nm and an emission of 600 nm. Data was analyzed using Prism software (Graphpad, San Diego, CA) to calculate IC50 values.

[3] = system: Ba/F3 KIT mutant cells; experiment: Ba/F3 mutant KIT Cell Proliferation Assays (resazurin); type: cell-based; settings: Mus musculus, BaF3
Description: Ba/F3 KIT Mutant Cell Line Transduction and Expansion
Several different KIT cDNA encoding various primary and secondary mutations were cloned into a pLV(Exp]-CMV>(cDNA):IRES:puro vector. These vectors were constructed and packaged by VectorBuilder.
Exponentially grown Ba/F3 cells (1×10^6 cells in 1 ml medium) were infected with 60 μl of viral suspension in a 6-well plate in the presence of mIL-3 (10 ng/ml) and polybrene (7.5 μg/ml) (Vector Builder) and incubated for 16 h. After 16 h, the cells were centrifuged, and viral supernatant was discarded. The cells were then re-suspended in fresh medium and allowed to recover for another day. After 72 h post infection, the cells were seeded with complete medium with mIL-3 and with 1 μg/ml puromycin added to medium for selection. After 48 h, cells without viral infection die, whereas successfully transduced cells were collected and changed to fresh medium with 5 ng/ml of IL-3. After a week or two with gradual withdrawal of mIL3 the cells that can continue to proliferate in the absence of mIL3 were exponentially expanded and were frozen down for banking.
Ba/F3 mutant KIT Cell Proliferation Assays
as §1, with “a 384-well” for “a 96-well”, “NY). Six hundred and twenty-five” for “NY). Five thousand”, “in 50” for “in 200”, “for 68” for “for 115”, “at 37° C.,” for “at 37 degrees Celsius,”, “period 10” for “period 40”

[4] = Ba/F3 KIT AYdup mutant cell proliferation, read-out: AYdup IC50
[5] = Ba/F3 KIT AYdup-D816G mutant cell proliferation, read-out: AYdup-D816G IC50
[6] = Ba/F3 KIT AYdup-V654A mutant cell proliferation, read-out: AYdup-V654A IC50
[7] = Ba/F3 KIT exon11del-V654A mutant cell proliferation, read-out: exon11del-V654A IC50
[8] = Ba/F3 KIT exon11del-Y823D mutant cell proliferation, read-out: exon11del-Y823D IC50

c-KIT kinase (uKIT), sequence (P10721 other isoform, or with tags, fused parts or gaps): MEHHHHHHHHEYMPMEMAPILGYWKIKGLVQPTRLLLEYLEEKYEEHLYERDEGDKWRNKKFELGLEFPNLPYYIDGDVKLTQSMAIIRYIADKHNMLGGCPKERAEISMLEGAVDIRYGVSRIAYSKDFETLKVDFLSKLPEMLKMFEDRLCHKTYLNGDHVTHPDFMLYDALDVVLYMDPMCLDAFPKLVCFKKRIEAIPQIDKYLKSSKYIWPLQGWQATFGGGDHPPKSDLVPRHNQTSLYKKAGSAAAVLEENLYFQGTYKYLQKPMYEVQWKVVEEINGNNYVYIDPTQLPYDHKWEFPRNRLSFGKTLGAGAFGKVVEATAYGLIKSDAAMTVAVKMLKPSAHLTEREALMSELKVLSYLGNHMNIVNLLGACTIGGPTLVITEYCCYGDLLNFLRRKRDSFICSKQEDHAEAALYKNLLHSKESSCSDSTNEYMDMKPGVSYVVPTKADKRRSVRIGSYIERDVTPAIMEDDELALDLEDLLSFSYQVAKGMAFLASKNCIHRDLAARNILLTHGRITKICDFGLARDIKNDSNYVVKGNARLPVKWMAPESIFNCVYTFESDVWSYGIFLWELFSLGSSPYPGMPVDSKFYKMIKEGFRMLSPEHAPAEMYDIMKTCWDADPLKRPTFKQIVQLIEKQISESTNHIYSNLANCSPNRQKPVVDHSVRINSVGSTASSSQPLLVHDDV

Compound | IC50 [1] [nM] | IC50 [2] [nM] | IC50 [3, 4] [nM] | IC50 [3, 5] [nM] | IC50 [3, 6] [nM] | IC50 [3, 7] [nM] | IC50 [3, 8] [nM]
COCCOc1cc(F)c2c(Nc3ccc(NC(=O)NCCC(C)(C)C(F)(F)F)cc3)ncnc2c1 [Example 1, 1-(4-((5-fluoro-7-(2-methoxyethoxy)quinazolin-4-yl)amino)phenyl)-3-(4,4,4-trifluoro-3,3-dimethylbutyl)urea] | ≤ 10 | ≤ 10 | – | – | – | – | –
COCCOc1cc(F)c2c(Nc3ccc(NC(=O)NCCC(C)(C)F)cc3)ncnc2c1 [Example 2, 1-(3-fluoro-3-methylbutyl)-3-(4-((5-fluoro-7-(2-methoxyethoxy)quinazolin-4-yl)amino)phenyl)urea] | ≤ 10 | 10 to 100 | ≤ 10 | 10 to 100 | 10 to 100 | 10 to 100 | 100 to 1000
COCCOc1cc(F)c2c(Nc3ccc(NC(=O)CCC(C)(C)C)cc3)ncnc2c1 [Example 3, N-(4-((5-fluoro-7-(2-methoxyethoxy)quinazolin-4-yl)amino)phenyl)-4,4-dimethylpentanamide] | 10 to 100 | 100 to 1000 | – | – | – | – | –
COCCOc1cc(F)c2c(Nc3ccc(NC(=O)CC(=O)NCC(C)(C)C)cc3)ncnc2c1 [Example 4, N1-(4-((5-fluoro-7-(2-methoxyethoxy)quinazolin-4-yl)amino)phenyl)-N3-neopentylmalonamide] | 10 to 100 | ≤ 10 | 10 to 100 | 10 to 100 | 10 to 100 | 10 to 100 | 10 to 100
COCCOc1cc(F)c2c(Nc3ccc(NC(=O)CC(=O)NCC(C)(C)OC)cc3)ncnc2c1 [Example 5, N^1-(4-((5-fluoro-7-(2-methoxyethoxy)quinazolin-4-yl)amino)phenyl)-N^3-(2-methoxy-2-methylpropyl)malonamide] | 10 to 100 | 10 to 100 | – | – | 10 to 100 | 10 to 100 | > 1000
CC(C)Oc1cc(F)c2c(Nc3ccc(NC(=O)NCCC(C)(C)F)cc3)ncnc2c1 [Example 6, 1-(3-fluoro-3-methylbutyl)-3-(4-((5-fluoro-7-isopropoxyquinazolin-4-yl)amino)phenyl)urea] | ≤ 10 | 10 to 100 | – | – | 100 to 1000 | ≤ 10 | 100 to 1000
CO[C@@H](C)COc1cc(F)c2c(Nc3ccc(NC(=O)NCCC(C)(C)F)cc3)ncnc2c1 [Example 7, (S)-1-(3-fluoro-3-methylbutyl)-3-(4-((5-fluoro-7-(2-methoxypropoxy)quinazolin-4-yl)amino)phenyl)urea] | ≤ 10 | 10 to 100 | – | – | 10 to 100 | 10 to 100 | 10 to 100
COCCOc1cc(F)c2c(Nc3ccc(NC(=O)NC4CC(C)(C)C4)cc3)ncnc2c1 [Example 8] | ≤ 10 | 10 to 100 | ≤ 10 | 10 to 100 | 10 to 100 | 10 to 100 | 100 to 1000
COCCOc1cc(F)c2c(Nc3ccc(NC(=O)NCCC(C)(C)C)cc3)ncnc2c1 [Example 9] | ≤ 10 | ≤ 10 | ≤ 10 | ≤ 10 | ≤ 10 | ≤ 10 | 10 to 100
COCCOc1cc(F)c2c(Nc3ccc(NC(=O)NCCC(C)(C)OC)cc3)ncnc2c1 [Example 10] | ≤ 10 | ≤ 10 | ≤ 10 | ≤ 10 | 10 to 100 | ≤ 10 | 10 to 100
COCCOc1cc(F)c2c(Nc3ccc(NC(=O)NCC4COC4)cc3)ncnc2c1 [Example 11] | 10 to 100 | 100 to 1000 | – | – | – | – | –
COCCOc1cc(F)c2c(Nc3ccc(NC(=O)NC4CCOCC4)cc3)ncnc2c1 [Example 12] | 10 to 100 | 100 to 1000 | – | – | – | – | –
COCCOc1cc(F)c2c(Nc3ccc(NC(=O)NCC4CCOCC4)cc3)ncnc2c1 [Example 13] | 10 to 100 | 10 to 100 | – | – | – | – | –
COCCOc1cc(F)c2c(Nc3ccc(NC(=O)N[C@@H]4CCOC4)cc3)ncnc2c1 [Example 14] | 10 to 100 | 100 to 1000 | – | – | – | – | –
